Assay [1] relates to VEGF. Kind of assay: qPCR (TLDA) VEGF gene expression in HFDPC. As to conditions: peptide 10^−5 M (table title), 24 hours, relative to untreated controls. The format is cell-based, human. The procedure: (§1) RNA was extracted and purified from cell pellets using the RNA XS Kit (Macherey-Nagel). RNA quantification was carried out with a NanoDrop device and sample quality was verified on a Bioanalyzer with RNA 6000 Nano chips (Agilent). cDNA was synthesized from 300 ng of RNA using the High-Capacity cDNA Reverse Transcription Kit (LifeTech). Quality-control qPCR assays of the cDNA were carried out in microplates on the reference gene, GAPDH, and the SIRT1 gene.
(§2) Final qPCR experiments were carried out in a 1 μl volume on microfluidic cards (TaqMan Low Density Arrays, LifeTech) and the ABI 7900HT qPCR device. Amplification reactions were performed in duplicate using 1 to 2 ng of cDNA per qPCR reaction and TaqMan Universal Master Mix II (LifeTech).
(§3) Ct values were obtained using the RQ Manager software. For analyses of qPCR results, Ct values were limited to 35 cycles and the duplicate assays are averaged. The GeneXPro software was used for the studies of stability and of selection of the best reference genes. Expression variations are calculated by the relative quantification method and are expressed as percent increase in expression of the gene of interest relative to the untreated controls.
A general note: Real-time PCR tracks product formation cycle by cycle.

Assay [2] has as its system HGF. Briefly: HGF secretion by NHEM (ELISA/BioPlex). The format is cell-based, human. As to conditions: 10^−7 M, 48h. The procedure: (§4) NHDF, HFDPC, HHFK and NHEM cells were treated with the peptides studied for 48h. At the end of the treatment, cell supernatants were collected and stored at −80° C. until analysis. The factors of interest secreted into the supernatant were assayed by ELISA® (R&D) or BioPlex® (BioRad®).
(§5) The results are expressed as percent increase in the concentration of the factor present in the supernatant relative to the untreated control. The intensity of the effect varies as a function of the concentration of the peptide studied and of the cell type treated.

Assay [3] has as its system NGF. Briefly: NGF secretion by NHDF (ELISA/BioPlex). It is filed as cell-based, human. As to conditions: 48h. The procedure: as §4, §5
Background: An ELISA detects its analyte on a solid surface through an enzyme-linked reagent.

The subject of assay [4] is PDGF. Briefly: PDGF secretion by HFDPC (ELISA/BioPlex). The format is cell-based, human. As to conditions: 48h. The procedure: as §4, §5
In assay [5] the test system is HGF. Kind of assay: HGF secretion by NHDF (ELISA/BioPlex). It is filed as cell-based, human. As to conditions: 48h. The procedure: as §4, §5
Assay [6] concerns genes whose expression is reduced in subjects characterized by alopecia. Kind of assay: qPCR (TLDA) overall statement, genes involved in alopecia, HFDPC. The format is cell-based, human. The note with it: summary of Table 1. The procedure: (§6) To study the effect of 9 peptides on these genes, HFDPC were treated for 24 hours with the molecules tested at 10^−7M and 10^−9M concentrations.
as §1, §2, §3

The subject of assay [7] is VEGF. Briefly: VEGF secretion by NHDF (ELISA/BioPlex). It is filed as cell-based, human. As to conditions: 48h. The procedure: as §4, §5
In assay [8] the test system is IGF1. Briefly: qPCR (TLDA) IGF1 gene expression in HFDPC. The note with it: relative to untreated controls. It is filed as cell-based, human. The procedure: as §6, §1, §2, §3
For assay [9], the system named is HGF. Kind of assay: HGF secretion by HHFK (ELISA/BioPlex). The format is cell-based, human. The note with it: 10^−7 M, 48h. The procedure:
as §4, §5

The test system of assay [10] is VEGF. Briefly: VEGF secretion by NHEM (ELISA/BioPlex). The note with it: 10^−7 M, 48h. It is filed as cell-based, human. The procedure:
as §4, §5

The test system of assay [11] is KGF. Briefly: qPCR (TLDA) KGF gene expression in HFDPC. As to conditions: peptide, 24 hours, relative to untreated controls. The format is cell-based, human. On the set-up: dose or concentration left out as unconfirmed. The procedure:
as §1, §2, §3

Assay [12] concerns KGF. Briefly: KGF secretion by HFDPC (ELISA/BioPlex). As to conditions: 48h. It is filed as cell-based, human. The procedure:
as §4, §5

Assay [13] has as its system BMP2. Kind of assay: BMP2 secretion by HFDPC (ELISA/BioPlex). It is filed as cell-based, human. As to conditions: 10^−9 M, 48h. The procedure: as §4, §5
Assay [14] concerns BMP2. Kind of assay: qPCR (TLDA) BMP2 gene expression in HFDPC. The note with it: peptide 10^−7, 24 hours, relative to untreated controls. The format is cell-based, human. The procedure: as §6, §1, §2, §3
Assay [15] has as its system follicular markers. Briefly: Follicular markers in isolated hair ex vivo (immunolabeling). The format is cell-based, human. As to conditions: end of treatment D11 or D12, value = marker increased. The procedure: (§7) This study was carried out on microdissected hairs from scalp surgery specimens from women aged 52 to 71 years. Isolated hairs were kept alive for 11 to 12 days in Williams medium, under conventional cell culture conditions (37° C., 5% CO2). […]
(§8) To evaluate the effect of (1), (6) or (9) on hair growth, the hairs were photographed and their lengths measured using image analysis software. Thus, the growth of the hairs between D0 and D11/D12 could be calculated and compared with that of the untreated control. At the end of the treatments (D11 or D12), the hairs were collected and frozen or fixed for immunolabeling and histological staining.

Assay [16] concerns VEGF. Briefly: VEGF secretion by HFDPC (ELISA/BioPlex). The format is cell-based, human. As to conditions: 48h. The procedure:
as §4, §5

In assay [17] the test system is microdissected hairs from scalp surgery specimens. Kind of assay: Growth of isolated hair ex vivo. It is filed as cell-based, human. The note with it: for Growth at D 11/D 12 Vs Control: ex vivo isolated hair. The procedure:
as §7, §8

For assay [18], the system named is immortalized human skin keratinocytes (HaCaT). Briefly: CellTiter-Blue proliferation of HaCaT. The format is cell-based. The note with it: 10^−5M, 72 hours. The procedure: Cell proliferation and viability were evaluated in vitro with a kit from Promega, CellTiter-Blue® Cell Viability Assay, for estimating the number of living cells present in the culture. This kit is based on detection, by measurement of fluorescence, of conversion of the dye, resazurin, into a fluorescent product (resorufin) by living and thus metabolically active cells.
The effect of the peptides tested, (1) and (9), at 4 different concentrations (10^−5, 10^−7, 10^−9 and 10^−11M) was examined on five cell types: immortalized human skin keratinocytes (HaCaT), human hair follicular keratinocytes (HHFK), normal human dermal fibroblasts (NHDF), hair follicle dermal papilla cells (HFDPC), and normal human epidermal melanocytes (NHEM) exposed to the molecule studied for 72 hours.
(In general: The colour change of resazurin is a common sign of viable cells or microbes.)

The subject of assay [19] is SCF. Kind of assay: SCF secretion by NHDF (ELISA/BioPlex). The format is cell-based, human. As to conditions: 48h. The procedure: as §4, §5

Results on three substances are retold here after patent US10947273B2, “Peptides of use in the preventive and curative treatment of alopecia” (Institut Europeen de Biologie Cellulaire, priority 2015, dated 2021).

Entries after “also recorded” stand apart in the source; their conditions may differ. The star is where a group is joined. Palmitoyl = CCCCCCCCCCCCCCCC(=O)*

As for “Palm-Ala-Arg-Ala-Ala-Lys-NH2 (Palmitoyl-ARAAK-NH2; SMILES CCCCCCCCCCCCCCCC(=O)N[C@@H](C)C(=O)N[C@@H](CCCNC(=N)N)C(=O)N[C@@H](C)C(=O)N[C@@H](C)C(=O)N[C@@H](CCCCN)C(N)=O) [(5)]”, the “% stimulation VEGF gene expression” value in assay [1] is 10%. For the same substance, the figures for the “HGF secretion, percent increase relative to untreated control” value in [2], in [5] (10^−7 M) and in assay [9] were “HGF 8%”, “HGF 21%” and “HGF 104%”, respectively. Further, the “NGF secretion, percent increase relative to untreated control” value in assay [3] (10^−5 M) is reported as “NGF 15%”. The “PDGF secretion, percent increase relative to untreated control” value is on record as “PDGF 39%” in [4] (10^−5 M) and “PDGF 55%” in assay [4] (10^−7 M). Besides, the “stimulation of genes whose expression is reduced in alopecia (in words)” value in assay [6] was “stimulate several genes”. Besides, the “VEGF secretion, percent increase relative to untreated control” value in assay [7] (10^−5 M) is “VEGF 12%”; in [10], “VEGF 5%”. For the same substance, the “% stimulation IGF1 gene expression” value in assay [8] (peptide 10^−7, 24 hours) is listed as 29% (10^−7); in assay [8] (peptide 10^−9, 24 hours), 16% (10^−9).
In the case of “H-Ala-Arg-Pro-Ala-Lys-OH (H-ARPAK-OH) [Peptide (1)]”, in assay [11], the “% stimulation KGF gene expression” value came out at 14%. The “KGF secretion, percent increase relative to untreated control” value in assay [12] (10^−7 M) was “KGF 8%”; in [12] (10^−9 M) it was “KGF 25%”. Moreover, the “BMP2 secretion, percent increase relative to untreated control” value in assay [13] is reported as “BMP2 22%”. Further, in assay [3] (10^−9 M), the “NGF secretion, percent increase relative to untreated control” value is given as “NGF 13%”. Further, the results for the “PDGF secretion, percent increase relative to untreated control” value in [4] (10^−7 M) and in [4] (10^−9 M) were “PDGF 31%” and “PDGF 23%”, respectively. The “HGF secretion, percent increase relative to untreated control” value in assay [5] (10^−9 M) is “HGF 18%”. The “stimulation of genes whose expression is reduced in alopecia (in words)” value in [6] is “stimulate several genes”. Further, the “VEGF secretion, percent increase relative to untreated control” value was “VEGF 4%” in [7] (10^−7 M), “VEGF5%” in [7] (10^−9 M), “VEGF 9%” in assay [16] (10^−7 M) and “VEGF 4%” in assay [16] (10^−9 M). Further, the “% stimulation BMP2 gene expression” value in assay [14] was 26% (10^−7). The “Follicular markers increased Vs Control” value was “Coll IV; also recorded: Laminin-5” in assay [15] (10^−1 M); “Coll IV and CD34” in [15] (10^−9 M). Further, the “% stimulation IGF1 gene expression” value in assay [8] (peptide 10^−7, 24 hours) was 32% (10^−7). Further, the “Growth at D 11/D 12 Vs Control” value was “No effect” in assay [17] (10^−1 M) and “+40%” in assay [17] (10^−9 M). Besides, the “growth increase compared with minoxidil sulphate” value in [17] (peptide 10^−9M, minoxidil sulphate 10^−5 M) is recorded as “close to that obtained after treatment with minoxidil sulphate”. In addition, the “hair growth after 11 to 12 days of treatment ex vivo (in words)” value in assay [17] (summary of Table 3) is “stimulate hair growth”. In addition, the “stimulation of proliferation of HaCaT” value in assay [18] was “+15%”.
Regarding “Palm-Ala-Arg-Pro-Ala-Ala-NH2 (Palmitoyl-ARPAA-NH2; SMILES CCCCCCCCCCCCCCCC(=O)N[C@@H](C)C(=O)N[C@@H](CCCNC(=N)N)C(=O)N1CCC[C@H]1C(=O)N[C@@H](C)C(=O)N[C@@H](C)C(N)=O) [(4)]”, the results for the “SCF secretion, percent increase relative to untreated control” value in [19] (10^−7 M) and in [19] (10^−9 M) were “SCF 6%” and “SCF 8%”, respectively. Moreover, the “NGF secretion, percent increase relative to untreated control” value in [3] (10^−7 M) is given as “NGF 12%”; in [3] (10^−9 M), “NGF 18%”. Further, the “PDGF secretion, percent increase relative to untreated control” value in [4] (10^−7 M) is listed as “PDGF 8%”. The “HGF secretion, percent increase relative to untreated control” value is “HGF 188%” in assay [5] (10^−7 M) and “HGF 95%” in assay [5] (10^−9 M). Also, in [7] (10^−7 M), the “VEGF secretion, percent increase relative to untreated control” value is given as “VEGF 9%”.
